Measured values: patent publication US6451806B2, “Methods and compositions involving opioids and antagonists thereof” (Adolor Corporation, priority 1999, dated 2002)

How the values were obtained:
[1] = test system: opioid-induced nausea and pruritus; conditions: Yuan, C.-S. et al. Drug and Alcohol Dependence 1998, 52, 161; cited from earlier work
[2] = solubility in water; format: physicochemical; conditions: except at low or high pH conditions
Description: Zwitterionic character may be inherent to the compound, and may impart desirable properties such as poor systemic absorption and sustained local affect on the gut following oral administration.

[3] = test system: morphine-induced constipation in mice; experiment: mouse model of opioid-induced constipation (charcoal meal transit time); format: in vivo
Description: This establishes that the compound of formula (II) is a gut-selective and peripherally-selective mu antagonist compound. In addition, it is orally effective in preventing or reversing morphine-induced constipation in mice.

[4] = test system: loperamide-induced slowing of gut motility; experiment: clinical crossover study of loperamide-induced slowing of gut motility (colonic transit time); format: in vivo; conditions: man, 8 mg b.i.d. oral loperamide
Method: A clinical study in man was an 8 subject multiple crossover study of the effects of oral pre-treatment with placebo, 2.4 mg or 24 mg t.i.d. of the compound of formula (II) on slowing of gut motility induced with 8 mg of b.i.d. of oral loperamide (a peripheral mu opioid agonist). […] The graph presents the effects of 2.4 or 24 mg of the compound of formula (II) on colonic transit time (in hours) following administration of loperamide. The loperamide dose was constant in the three treatment groups.

[5] = test system: effect of intravenous morphine sulfate on upper gastrointestinal motility; experiment: Phase I study in healthy volunteers with intravenous morphine sulfate; format: in vivo, humans; conditions: 4 mg oral dose
[6] = test system: inhibition of gastrointestinal transit produced by MS Contin; experiment: Phase I study in volunteers with oral sustained-release morphine (MS Contin); format: in vivo, humans; conditions: 3 mg oral three times daily for 4 days, MS Contin 30 mg twice daily
Description: Pupil size was used as a surrogate measure of the morphine's analgesic activity.

[7] = test system: analgesia and pupil constriction produced by intravenous morphine sulfate; experiment: Phase II clinical study, third molar extraction dental surgery, intravenous morphine sulfate; format: in vivo, humans; conditions: 4 mg total oral dose
[8] = test system: postsurgical opioid effects, postoperative nausea and vomiting; experiment: Phase II clinical study, partial colectomy or hysterectomy, postoperative nausea and vomiting (VAS); format: in vivo, humans; conditions: for patients reporting VAS nausea scores over 20 / patients exhibiting no nausea (highest VAS score=0): postoperative morphine or meperidine
Method: A 78 patient Phase II clinical study was conducted which compared two doses (2 mg and 12 mg) of the compound of formula (II) versus placebo in patients undergoing partial colectomy or simple or radical hysterectomy surgical procedures. All patients in this clinical study received morphine or meperidine infusions to treat postoperative pain. Oral doses of compound (II) or placebo were administered to block postsurgical opioid effects, including postoperative nausea and vomiting. Results of this study comparing patients receiving 12 mg of compound (II) and placebo are depicted graphically in FIGS. 2A and 2B.
The intensity of nausea was evaluated by patients on a 100-point visual analog scale (VAS) with VAS=0 being no nausea and VAS=100 being the worst nausea that a patient could imagine. The highest VAS nausea score (worst nausea) recorded for each patient was computed and the distributions of these maximum values were compared among the treatment groups. […] The overall treatment differences in the distributions were significant when compared using a Kruskal-Wallis test (P=0.0184). The improved outcomes observed in the 12 mg per day dose group are evident in the pairwise comparisons based on the Wilcoxon rank sum tests.

**Q.** For C[N@+]1(CC2CC2)CC[C@]23c4c5ccc(O)c4O[C@H]2C(=O)CC[C@@]3(O)[C@H]1C5 [methylnaltrexone], which “incidence of opioid-induced nausea and pruritus” value [1] is on record?
**A.** effectively reduce the incidence of opioid-induced nausea and pruritus

**Q.** With C[C@H]1CN(C[C@H](Cc2ccccc2)C(=O)NCC(=O)O)CCC1(C)c1cccc(O)c1 (some centres unmarked) [compound of formula (II)] as the compound, how does the solubility in water [2] read?
**A.** low solubility in water

**Q.** And the “reversal of morphine-induced constipation” value ([3]; chronic morphine treated mice)?
**A.** even more potent in reversing morphine-induced constipation

**Q.** And the “prevention of acute morphine-induced constipation (charcoal meal transit time)” value ([3]; mice, orally administered)?
**A.** prevented acute morphine-induced constipation

**Q.** And the “loperamide-induced slowing of gut motility (colonic transit time)” value ([4]; 2.4 mg t.i.d. oral pre-treatment)?
**A.** prevented loperamide-induced slowing of gut motility

**Q.** What about the “loperamide-induced slowing of gut motility (colonic transit time)” value ([4]; 24 mg t.i.d. oral pre-treatment) of the same compound?
**A.** prevented loperamide-induced slowing of gut motility

**Q.** And the “effect of intravenous morphine sulfate on upper gastrointestinal motility” value ([5]; P<0.01)?
**A.** blocked the effect of intravenous morphine sulfate on upper gastrointestinal motility

**Q.** What about the morphine-induced nausea ([5]; P=0.07) of the same compound?
**A.** trend toward antagonizing morphine-induced nausea

**Q.** What about the “MS Contin effects on pupil size (surrogate of analgesic activity)” value [6] of the same compound?
**A.** without antagonizing MS Contin® effects on pupil size

**Q.** And the “inhibition of gastrointestinal transit produced by oral sustained-release morphine” value [6]?
**A.** blocked the inhibition of gastrointestinal transit

**Q.** And the “patients withdrawn for adverse effects” value [7]?
**A.** No patients were withdrawn for adverse effects

**Q.** What about the “antagonism of analgesia produced by intravenous morphine sulfate” value ([7]; patients) of the same compound?
**A.** did not antagonize

**Q.** What about the “antagonism of pupil constriction produced by intravenous morphine sulfate” value ([7]; patients) of the same compound?
**A.** did not antagonize

**Q.** And the “reduction in postoperative pain control” value ([8]; 2 mg and 12 mg oral doses)?
**A.** None of the patients

**Q.** And the “serious adverse side effects judged related to the compound” value ([8]; 2 mg and 12 mg oral doses)?
**A.** No patients experienced serious adverse side effects

**Q.** And the “patients reporting VAS nausea scores over 20” value ([8]; 2 mg dose group)?
**A.** 67%

**Q.** And the “patients exhibiting no nausea (highest VAS score=0)” value ([8]; 2 mg per day oral)?
**A.** approximately 25%

**Q.** And the “patients exhibiting no nausea (highest VAS score=0)” value ([8]; 12 mg per day oral)?
**A.** ~40%

**Q.** What about the “patients reporting VAS nausea scores over 20” value ([8]; 12 mg per day oral) of the same compound?
**A.** 27%

**Q.** What about the “distribution of highest VAS nausea score compared to placebo” value ([8]; 12 mg per day, Wilcoxon rank sum test, P=0.0072) of the same compound?
**A.** statistically significantly improved
